From patent US4717767A, “7-amino-3-(pyrazinylmethyl) or (pyridazinylmethyl)-cephalosporins” (Toyama Chemical Co., Ltd., priority 1982, dated 1988)
≈ marks a conversion by molar mass, not a printed value. Where a name gives a salt, the structure may show the parent alone. Read-outs that look alike come from different tables or passages of the source.

Legend:
Format in all cases: cell-based
[1] = tested on: E. coli NIHJ; experiment: Antibacterial activity (MIC), E. coli NIHJ; details: Escherichia coli; Heart Infusion agar, 37° C., 20 hours, 10^4 cells/plate (10^6 cells/ml)
Source text: (§1) The amount of the inoculated bacteria was 10^4 cells/plate (10^6 cells/ml).

[2] = tested on: Pro. vulgaris GN76; experiment: Antibacterial activity (MIC), Pro. vulgaris GN76; details: Proteus vulgaris, cephalosporinase-producing strain, Heart Infusion agar, 37° C., 20 hours, 10^6 cells/ml
Source text: as §1

[3] = tested on: Pro. morganii T-216; experiment: Antibacterial activity (MIC), Pro. morganii T-216; details: Morganella morganii, T216; Heart Infusion agar, 37° C., 20 hours, 10^6 cells/ml
Source text: as §1

[4] = tested on: Ser. marcescens IID620; experiment: Antibacterial activity (MIC), Ser. marcescens IID620; details: Serratia marcescens
Source text: as §1

[5] = tested on: Cit. freundii N-7; experiment: Antibacterial activity (MIC), Cit. freundii N-7; details: Citrobacter freundii
Source text: as §1

[6] = tested on: Ser. marcescens W-134; experiment: Antibacterial activity (MIC), Ser. marcescens W-134; details: Serratia marcescens
Source text: as §1

[7] = tested on: Pro. mirabilis T-111; experiment: Antibacterial activity (MIC), Pro. mirabilis T-111; details: Proteus mirabilis
Source text: as §1

[8] = tested on: E. coli TK-3; experiment: Antibacterial activity (MIC), E. coli TK-3; details: Escherichia coli
Source text: as §1

[9] = tested on: Kl. pneumoniae Y-50; experiment: Antibacterial activity (MIC), Kl. pneumoniae Y-50; details: Klebsiella pneumoniae, Y50; Heart Infusion agar, 37° C., 20 hours, 10^6 cells/ml
Source text: as §1

[10] = tested on: Kl. pneumoniae Y-4; experiment: Antibacterial activity (MIC), Kl. pneumoniae Y-4; details: Klebsiella pneumoniae, Y4; penicillinase-producing strain; Heart Infusion agar, 37° C., 20 hours, 10^6 cells/ml
Source text: as §1

[11] = tested on: Ps. aeruginosa GN918; experiment: Antibacterial activity (MIC), Ps. aeruginosa GN918; details: Pseudomonas aeruginosa, cephalosporinase-producing strain, Heart Infusion agar, 37° C., 20 hours, 10^6 cells/ml
Source text: as §1

[12] = tested on: Kl. pneumoniae Y-41; experiment: Antibacterial activity (MIC), Kl. pneumoniae Y-41; details: Klebsiella pneumoniae, Y41; Heart Infusion agar, 37° C., 20 hours, 10^6 cells/ml
Source text: as §1

[13] = T111, Heart Infusion agar, 37° C., 20 hours, 10^6 cells/ml, read-out: MIC
[14] = TK3, penicillinase-producing strain, Heart Infusion agar, 37° C., 20 hours, 10^6 cells/ml, read-out: MIC
[15] = IID620, Heart Infusion agar, 37° C., 20 hours, 10^6 cells/ml, read-out: MIC
[16] = W134, Heart Infusion agar, 37° C., 20 hours, 10^6 cells/ml, read-out: MIC
[17] = N7, Heart Infusion agar, 37° C., 20 hours, 10^6 cells/ml, read-out: MIC

Structure (SMILES) | MIC [1] [µg/mL] | MIC [2] [µg/mL] | MIC [3] [µg/mL] | MIC ([4]; IID620, 20 h) [µg/mL] | MIC ([5]; N7, 20 h) [µg/mL] | MIC ([6]; W134, 20 h) [µg/mL] | MIC [7, 13] [µg/mL] | MIC [8, 14] [µg/mL] | MIC [9] [µg/mL] | MIC [4, 15] [µg/mL] | MIC [6, 16] [µg/mL] | MIC [10] [µg/mL] | MIC [11] [µg/mL] | MIC [5, 17] [µg/mL] | MIC [12] [µg/mL] | MIC ([8]; TK3, 20 h) [µg/mL] | MIC ([7]; T111, 20 h) [µg/mL]
Nc1nc(/C(=N/OCC(=O)O)C(=O)NC2C(=O)N3C(C(=O)O)=C(Cn4[nH]c(=O)ccc4=O)CSC23)cs1 (stereo not drawn) [L, formic acid salt of 7-[2-(2-aminothiazol-4-yl)-2-(syn)-carboxymethoxyiminoacetamido]-3-{[1-(3,6-dioxo-1,2,3,6-tetrahydropyridazinyl)]methyl}-Δ^3-cephem-4-carboxylic acid] | ≤ 0.1 | ≤ 0.1 | ≤ 0.1 | 1.56 | 3.13 | ≤ 0.1 | ≤ 0.1 | 0.78 | 0.78 |  |  |  |  |  |  |  | 
Cc1ccc(=O)n(CC2=C(C(=O)O)N3C(=O)C(NC(=O)/C(=N\OCC(=O)O)c4csc(N)n4)C3SC2)n1 (centres unmarked) [N] | ≤ 0.1 | ≤ 0.1 | ≤ 0.1 |  | 0.78 (≈ 1.42 µM) |  | ≤ 0.1 | 0.2 (≈ 0.364 µM) | 0.39 (≈ 0.71 µM) | ≤ 0.1 | ≤ 0.1 |  |  |  |  |  | 
CN(C)n1ccn(CC2=C(C(=O)O)N3C(=O)C(NC(=O)/C(=N\OCC(=O)O)c4csc(N)n4)C3SC2)c(=O)c1=O (stereo not drawn) [I, trifluoroacetic acid salt of 7-[2-(2-aminothiazol-4-yl)-2-(syn)-carboxymethoxyiminoacetamido]-3-{[1-(4-dimethylamino-2,3-dioxo-1,2,3,4-tetrahydropyrazinyl)]methyl}-Δ^3-cephem-4-carboxylic acid] | ≤ 0.1 | ≤ 0.1 | ≤ 0.1 |  |  | ≤ 0.1 | ≤ 0.1 | ≤ 0.1 | 0.2 | ≤ 0.1 |  | 0.39 | 12.5 | 1.56 | 0.2 |  | 
CO/N=C(\C(=O)NC1C(=O)N2C(C(=O)O)=C(Cn3nc(C)ccc3=O)CSC12)c1csc(N)n1 (stereo not drawn) [M, trifluoroacetic acid salt of 7-[2-(2aminothiazol-4-yl)-2-(syn)-methoxyiminoacetamido]-3-{[1-(3-methyl-6-oxo-1,6-dihydropyridazinyl)]methyl}-Δ^3-cephem-4-carboxylic acid] | ≤ 0.1 | 0.2 | 0.2 |  |  | 0.78 | 0.2 | 0.2 | 0.2 | 0.2 |  |  |  | 0.78 |  |  | 
CCn1ccn(CC2=C(C(=O)O)N3C(=O)C(NC(=O)/C(=N\OC)c4csc(N)n4)C3SC2)c(=O)c1=O (stereo not drawn) [C, trifluoroacetic acid salt of 7-[2-(2-aminothiazol-4-yl)-2-(syn)-methoxyiminoacetamido]-3-{[1-(4-ethyl-2,3-dioxo-1,2,3,4-tetrahydropyrazinyl)]methyl}-Δ^3-cephem-4-carboxylic acid] | ≤ 0.1 | 1.56 | ≤ 0.1 |  |  |  | ≤ 0.1 | ≤ 0.1 | ≤ 0.1 | ≤ 0.1 | ≤ 0.1 | ≤ 0.1 | 6.25 | 0.78 | ≤ 0.1 |  | 
CO/N=C(\C(=O)NC1C(=O)N2C(C(=O)O)=C(Cn3ccn(N(C)C)c(=O)c3=O)CSC12)c1csc(N)n1 (stereo not drawn) [E, trifluoroacetic acid salt of 7-[2-(2-aminothiazol-4-yl)-2-(syn)-methoxyiminoacetamido]-3-{[1-(4-dimethylamino-2,3-dioxo-1,2,3,4-tetrahydropyrazinyl)]-methyl}-Δ^3-cephem-4-carboxylic acid] | ≤ 0.1 | 1.56 | ≤ 0.1 |  |  |  | ≤ 0.1 | ≤ 0.1 | ≤ 0.1 | ≤ 0.1 | ≤ 0.1 | ≤ 0.1 |  | 0.78 | ≤ 0.1 |  | 
Nc1nc(/C(=N/OCC(=O)O)C(=O)NC2C(=O)N3C(C(=O)O)=C(Cn4cc[nH]c(=O)c4=O)CSC23)cs1 (stereo not drawn) [F, 7-[2-(2-aminothiazol-4-yl)-2-(syn)-carboxymethoxyiminoacetamido]-3-{[1-(2,3-dioxo-1,2,3,4-tetrahydropyrazinyl)]methyl}-Δ^3-cephem-4-carboxylic acid] | ≤ 0.1 | ≤ 0.1 | ≤ 0.1 |  |  | ≤ 0.1 | ≤ 0.1 | ≤ 0.1 | ≤ 0.1 | ≤ 0.1 |  | 0.2 (≈ 0.363 µM) |  | 0.78 (≈ 1.41 µM) | 0.39 (≈ 0.707 µM) |  | 
CO/N=C(\C(=O)NC1C(=O)N2C(C(=O)O)=C(Cn3[nH]c(=O)ccc3=O)CSC12)c1csc(N)n1 (stereo not drawn) [K, trifluoroacetic acid salt of 7-[2-(2-aminothiazol-4-yl)-2-(syn)-methoxyiminoacetamido]-3-{[1-(3,6-dioxo-1,2,3,6-tetrahydropyridazinyl)]methyl}-Δ^3-cephem-4-carboxylic acid] | ≤ 0.1 | ≤ 0.1 | ≤ 0.1 |  | 0.78 |  | ≤ 0.1 |  | ≤ 0.1 | ≤ 0.1 | ≤ 0.1 |  |  |  |  | 0.2 | 
Cn1ccn(CC2=C(C(=O)O)N3C(=O)C(NC(=O)/C(=N\OCC(=O)O)c4csc(N)n4)C3SC2)c(=O)c1=O (centres unmarked) [G] | ≤ 0.1 | ≤ 0.1 | ≤ 0.1 |  |  |  | ≤ 0.1 | 0.2 (≈ 0.354 µM) | 0.2 (≈ 0.354 µM) | ≤ 0.1 | ≤ 0.1 | 0.2 (≈ 0.354 µM) |  | 1.56 (≈ 2.76 µM) | ≤ 0.1 |  | 
CO/N=C(\C(=O)NC1C(=O)N2C(C(=O)O)=C(Cn3ccn(C(C)C)c(=O)c3=O)CSC12)c1csc(N)n1 (stereo not drawn) [D, trifluoroacetic acid salt of 7-[2-(2-aminothiazol-4-yl)-(syn)-methoxyiminoacetamido]-3-{[1-(4-isopropyl-2,3-dioxo-1,2,3,4-tetrahydropyrazinyl)]methyl}-Δ^3-cephem-4-carboxylic acid] | ≤ 0.1 | 0.39 | ≤ 0.1 |  |  |  |  | ≤ 0.1 | ≤ 0.1 | ≤ 0.1 | ≤ 0.1 | 0.39 |  | 1.56 | ≤ 0.1 |  | 0.2
CO/N=C(\C(=O)NC1C(=O)N2C(C(=O)O)=C(Cn3cc[nH]c(=O)c3=O)CSC12)c1csc(N)n1 (stereo not drawn) [A, trifluoroacetic acid salt of 7-[2-(2-aminothiazol-4-yl)-2-(syn)-methoxyiminoacetamido]-3-{[1-(2,3-dioxo-1,2,3,4-tetrahydropyrazinyl)]methyl}-Δ^3-cephem-4-carboxylic acid] | ≤ 0.1 | ≤ 0.1 | ≤ 0.1 |  |  |  | ≤ 0.1 | ≤ 0.1 | ≤ 0.1 | ≤ 0.1 | ≤ 0.1 | ≤ 0.1 | 12.5 | 0.39 | ≤ 0.1 |  | 
CO/N=C(\C(=O)NC1C(=O)N2C(C(=O)O)=C(Cn3ccn(C)c(=O)c3=O)CSC12)c1csc(N)n1 (stereo not drawn) [B, trifluoroacetic acid salt of 7-[2-(2-aminothiazol-4yl)-2-(syn)-methoxyiminoacetamido]-3-{[1-(4-methyl-2,3-dioxo-1,2,3,4-tetrahydropyrazinyl)]methyl}-Δ^3-cephem-4-carboxylic acid] | ≤ 0.1 | 0.2 | ≤ 0.1 |  |  |  | ≤ 0.1 | ≤ 0.1 | ≤ 0.1 | ≤ 0.1 | ≤ 0.1 | 0.2 | 25 | 1.56 | ≤ 0.1 |  | 
CCn1ccn(CC2=C(C(=O)O)N3C(=O)C(NC(=O)/C(=N\OCC(=O)O)c4csc(N)n4)C3SC2)c(=O)c1=O (stereo not drawn) [H, trifluoroacetic acid salt of 7-[2-(2-aminothiazol-4-yl)-2-(syn)-carboxymethoxyiminoacetamido]-3-{[1-(4-ethyl-2,3-dioxo-1,2,3,4-tetrahydropyrazinyl)]methyl}-Δ^3-cephem-4-carboxylic acid] | ≤ 0.1 | ≤ 0.1 | ≤ 0.1 |  |  |  | ≤ 0.1 | ≤ 0.1 | 0.2 | ≤ 0.1 | ≤ 0.1 | 0.2 | 6.25 | 1.56 | ≤ 0.1 |  | 
CO/N=C(\C(=O)NC1C(=O)N2C(C(=O)O)=C(Cn3ccncc3=O)CSC12)c1csc(N)n1 (stereo not drawn) [J, trifluoroacetic acid salt of 7-[2-(2-aminothiazol-4-yl)-2-(syn)-methoxyiminoacetamido]-3-{[1-(2-oxo-1,2-dihydropyrazinyl)]methyl}-Δ^3-cephem-4-carboxylic acid] | ≤ 0.1 | 0.78 | ≤ 0.1 | ≤ 0.1 |  | 0.39 | 0.2 | 0.2 | ≤ 0.1 |  |  |  |  | 0.78 |  |  | 
